Data published in patent publication US20220298107A1, “SUBSTITUTED UREA DIHYDROOROTATE DEHYDROGENASE INHIBITORS” (Janssen Biotech, Inc., priority 2019, published 2022).

How the values were obtained:
human DHODH = human DHODH (Homo sapiens, UniProt Q02127); assay: biochemical
Experimental: To detect DHODH enzyme activities, dichloroindophenol (DCIP) is added as the final electron acceptor in the assay. DCIP can accept electrons from the reduced coenzyme Q generated in the assay, or from dihydroorotate (DHO) via flavin mononucleotide (FMN) by binding presumably to the ubiquinone pocket. […] The assay buffer contained […], pH 7.5, 150 mM NaCl, 0.5 mM EDTA, and 0.1% Triton X-100 in MilliQ water. Substrate consisting of 20 mM DHO, 5 mM CoQ6, and 1 mM DCIP in assay buffer, initiates the reaction. […] Absorbance measurements were obtained using the BMG Phera Star plate-reading spectrophotomer. Purified human DHODH was purchased from Proteros (cat. No. PR-0044). Chemicals were purchased from Sigma-Aldrich, Teknova, and Avanti Polar Lipids. Liquid handling was performed using Labcyte Echo and Formulatrix Tempest.

MOLM-13 cells = assay: MOLM-13 Cellular Assay; type: cell-based; settings: Homo sapiens, MOLM-13, 72 h, read-out: MOLM-13 Cellular Assay EC50 (nM)
Experimental: MOLM-13 cells were obtained from DSMZ and were maintained in RPMI 1640+Glutamax+25 mM HEPES (Invitrogen, catalog number 72400) supplemented with 10% heat inactivated fetal bovine serum (FBS; Invitrogen, catalog number 16140). The day prior to assay set-up, cells were pelleted, resuspended in fresh media, counted, and cells were plated at 0.4×10^6 cell/mL in a T150 flask. On the day of the assay, cells were pelleted, resuspend in fresh media, counted and seeded at 5,000 cells/well in white opaque 96-well tissue culture treated microplates (Perkin Elmer, catalog number 6005680). Cells were exposed to different concentrations of test compounds at 37° C., 5% CO2 for 72 hours immediately after seeding. Cell viability was acquired on a Perkin Elmer Envision 2104 multilabel reader using the CellTiter-Glo assay (Promega) according to the manufacturer's instructions.

human DHODH, sequence (Q02127 whole entry): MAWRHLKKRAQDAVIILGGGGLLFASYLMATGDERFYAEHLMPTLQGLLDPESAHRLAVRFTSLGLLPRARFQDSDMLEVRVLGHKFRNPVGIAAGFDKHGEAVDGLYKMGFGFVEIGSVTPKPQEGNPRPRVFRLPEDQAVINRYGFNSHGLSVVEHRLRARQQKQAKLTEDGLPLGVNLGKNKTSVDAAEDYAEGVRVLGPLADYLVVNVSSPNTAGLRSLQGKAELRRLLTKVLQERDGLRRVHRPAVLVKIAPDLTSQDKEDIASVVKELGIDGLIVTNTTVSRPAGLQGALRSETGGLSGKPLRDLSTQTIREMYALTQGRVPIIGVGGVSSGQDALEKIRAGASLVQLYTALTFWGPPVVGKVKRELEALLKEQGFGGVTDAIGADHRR

Compound | EC50 (human DHODH) [nM] | EC50 (MOLM-13 cells) [nM]
CCN(CC(F)F)C(=O)Nc1cc(O[C@@H](C)C(F)(F)F)c(C(=O)Nc2c(C)ccnc2Cl)cc1F [Example 41, (S)-N-(2-Chloro-4-methylpyridin-3-yl)-4-(3-(2,2-difluoroethyl)-3-ethylureido)-5-fluoro-2-((1,1,1-trifluoropropan-2-yl)oxy)benzamide] | 17 | 37
CCN(CC(F)F)C(=O)Nc1cc(O[C@@H](C)C(F)(F)F)c(C(=O)Nc2c(C)n[nH]c2Cl)cc1F [Example 42, (S)-N-(5-Chloro-3-methyl-1H-pyrazol-4-yl)-4-(3-(2,2-difluoroethyl)-3-ethylureido)-5-fluoro-2-((1,1,1-trifluoropropan-2-yl)oxy)benzamide] | 3 | 11

Next, values leading:

EC50 (human DHODH) [nM] | EC50 (MOLM-13 cells) [nM] | Compound
24 | 30 | CCN(CC(F)F)C(=O)Nc1cc(O[C@@H](C)C(F)(F)F)c(C(=O)Nc2c(C)ccnc2OC)cc1F [Example 43, (S)-4-(3-(2,2-difluoroethyl)-3-ethylureido)-5-fluoro-N-(2-methoxy-4-methylpyridin-3-yl)-2-((1,1,1-trifluoropropan-2-yl)oxy)benzamide]
7 | 9.6 | CCN(CC(F)F)C(=O)Nc1cc(O[C@@H](C)C(F)(F)F)c(C(=O)Nc2c(C)cnc(OC)c2Cl)cc1F [Example 44, (S)-N-(3-Chloro-2-methoxy-5-methylpyridin-4-yl)-4-(3-(2,2-difluoroethyl)-3-ethylureido)-5-fluoro-2-((1,1,1-trifluoropropan-2-yl)oxy)benzamide]
27 | 63 | CCN(CC(F)F)C(=O)Nc1cc(O[C@@H](C)C(F)(F)F)c(C(=O)Nc2c(C)cnc(OC)c2C)cc1F [Example 45, (S)-4-(3-(2,2-Difluoroethyl)-3-ethylureido)-5-fluoro-N-(2-methoxy-3,5-dimethylpyridin-4-yl)-2-((1,1,1-trifluoropropan-2-yl)oxy)benzamide]
